melting point [°C]	Compound
232 to 236	CC(C)C[C@H](NC(=O)[C@@H](NC(=O)c1cc(-c2ccccc2)n[nH]1)[C@@H](C)O)B(O)O [K.2.13, Boronic acid, [(1R)-1-[[(2S,3R)-3-hydroxy-2-[(5-phenyl-2H-pyrazole-3-carbonyl)amino]-1-oxobutyl]amino]-3-methylbutyl]]
190 to 195	CC(C)C[C@H](NC(=O)[C@@H](NC(=O)c1ccc(-c2ccccc2)cn1)[C@@H](C)O)B(O)O [K.2.7, Boronic acid, [(1R)-1-[[(2S,3R)-3-hydroxy-2-[(5-phenyl-pyridine-2-carbonyl)amino]-1-oxobutyl]amino]-3-methylbutyl]]
135 to 140	CC(C)C[C@H](NC(=O)[C@@H](NC(=O)c1cncc(-c2ccccc2)c1)[C@@H](C)O)B1O[C@@H]2C[C@@H]3C[C@@H](C3(C)C)[C@]2(C)O1 [H.2.6, 5-Phenyl-pyridine-3-carboxamide, N-[(1S,2R)-1-[[[(1R)-1-[(3aS,4S,6S,7aR)-hexahydro-3a,5,5-trimethyl-4,6-methano-1,3,2-benzodioxaborol-2-yl]-3-methylbutyl]amino]carbonyl]-2-hydroxypropyl]]

Continued, molecule first:

Compound	melting point [°C]
Cc1ccc(C(=O)NC[C@H](NC(=O)c2ccc3ccccc3n2)C(=O)N[C@@H](CC(C)C)B(O)O)cc1 [L.2.5, Boronic acid, [(1R)-1-[[(2 S)-3-[(4-methylbenzoyl)amino]-2-[(quinoline-2-carbonyl)amino]-1-oxopropyl]amino]-3-methylbutyl]]	235 to 237
Cc1ccc(C(=O)NC[C@H](NC(=O)c2cccnc2)C(=O)N[C@@H](CC(C)C)B(O)O)cc1 [L.2.4, Boronic acid, [(1R)-1-[[(2 S)-3-[(4-methylbenzoyl)amino]-2-[(pyridine-3-carbonyl)amino]-1-oxopropyl]amino]-3-methyibutyl]]	220 to 222
Cc1ccc(C(=O)NC[C@H](NC(=O)c2cccc(-c3cccs3)n2)C(=O)N[C@@H](CC(C)C)B(O)O)cc1 [L.2.21]	158 to 160

From patent US8283367B2, “Proteasome inhibitors and methods of using the same” (Cephalon, Inc., priority 2005, dated 2012)
